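All cell lines were grown in 96-well plates and treated with compound for 48 hours. GI50: concentration for 50% inhibition of growth.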 Activity calls are given as the source filed them. Rule as the data show it: active = GI50 up to about 1.1 µM and inactive = higher.
Experiments:
Assay in all cases: inhibition of tumour cell growth, NCI panel, 48 h
ACHN = system: ACHN
RPMI-8226 = system: RPMI-8226
SK-MEL-2 = system: SK-MEL-2
OVCAR-5 = system: OVCAR-5
HCT-116 = system: HCT-116
SN12C = system: SN12C
OVCAR-3 = system: OVCAR-3
UO-31 = system: UO-31
786-0 = system: 786-0
NCI-H460 = system: NCI-H460
SNB-75 = system: SNB-75
NCI-H522 = system: NCI-H522
NCI-H226 = system: NCI-H226
SK-MEL-28 = system: SK-MEL-28
SF-268 = system: SF-268
CCRF-CEM = system: CCRF-CEM
MOLT-4 = system: MOLT-4
COLO 205 = system: COLO 205
HOP-62 = system: HOP-62
SR = system: SR
SK-MEL-5 = system: SK-MEL-5
NCI/ADR-RES = system: NCI/ADR-RES
BT-549 = system: BT-549
UACC-62 = system: UACC-62
HT-29 = system: HT-29
UACC-257 = system: UACC-257
SW-620 = system: SW-620
HL-60 = system: HL-60
NCI-H23 = system: NCI-H23
MDA-N = system: MDA-N
SF-539 = system: SF-539
A498 = system: A498
K562 = system: K562
OVCAR-8 = system: OVCAR-8
CAKI-1 = system: CAKI-1
KM12 = system: KM12
EKVX = system: EKVX
Hs-578T = system: Hs-578T
M14 = system: M14
HOP-92 = system: HOP-92
HCC 2998 = system: HCC 2998
Malme-3M = system: Malme-3M
SF-295 = system: SF-295
MDA-MB-435 = system: MDA-MB-435
SK-OV-3 = system: SK-OV-3
RXF 393 = system: RXF 393
A549 = system: A549
TK-10 = system: TK-10
IGROV-1 = system: IGROV-1
LOX IMVI = system: LOX IMVI
SNB-19 = system: SNB-19
DU-145 = system: DU-145
PC-3 = system: PC-3
T47D = system: T47D

Question: With `CSCSSC` as the compound, how does the GI50 (ACHN) read?
Answer: > 100 µM (inactive)

Question: And the GI50 (RPMI-8226)?
Answer: 56.5 µM (inactive)

Question: And the GI50 (SK-MEL-2)?
Answer: > 35.5 µM (inactive)

Question: What about the GI50 (OVCAR-5) of the same compound?
Answer: > 100 µM (inactive)

Question: What about the GI50 (HCT-116) of the same compound?
Answer: > 100 µM (inactive)

Question: And the GI50 (SN12C)?
Answer: > 100 µM (inactive)

Question: And the GI50 (OVCAR-3)?
Answer: > 100 µM (inactive)

Question: And the GI50 (UO-31)?
Answer: > 100 µM (inactive)

Question: And the GI50 (786-0)?
Answer: > 100 µM (inactive)

Question: What about the GI50 (NCI-H460) of the same compound?
Answer: > 100 µM (inactive)

Question: And the GI50 (SNB-75)?
Answer: 52.1 µM (inactive)

Question: What about the GI50 (NCI-H522) of the same compound?
Answer: > 100 µM (inactive)

Question: And the GI50 (NCI-H226)?
Answer: > 100 µM (inactive)

Question: What about the GI50 (SK-MEL-28) of the same compound?
Answer: > 57.3 µM (inactive)

Question: What about the GI50 (SF-268) of the same compound?
Answer: > 100 µM (inactive)

Question: What about the GI50 (CCRF-CEM) of the same compound?
Answer: 40.6 µM (inactive)

Question: What about the GI50 (MOLT-4) of the same compound?
Answer: 4.67 µM (inactive)

Question: And the GI50 (COLO 205)?
Answer: > 100 µM (inactive)

Question: And the GI50 (HOP-62)?
Answer: > 100 µM (inactive)

Question: And the GI50 (SR)?
Answer: 30.7 µM (inactive)

Question: And the GI50 (SK-MEL-5)?
Answer: > 100 µM (inactive)

Question: And the GI50 (NCI/ADR-RES)?
Answer: > 100 µM (inactive)

Question: What about the GI50 (BT-549) of the same compound?
Answer: > 100 µM (inactive)

Question: What about the GI50 (UACC-62) of the same compound?
Answer: 61.7 µM (inactive)

Question: What about the GI50 (HT-29) of the same compound?
Answer: > 100 µM (inactive)

Question: What about the GI50 (UACC-257) of the same compound?
Answer: > 100 µM (inactive)

Question: What about the GI50 (SW-620) of the same compound?
Answer: 49.4 µM (inactive)

Question: What about the GI50 (HL-60) of the same compound?
Answer: 2.54 µM (inactive)

Question: What about the GI50 (NCI-H23) of the same compound?
Answer: > 83 µM (inactive)

Question: And the GI50 (MDA-N)?
Answer: > 93.3 µM (inactive)

Question: What about the GI50 (SF-539) of the same compound?
Answer: > 100 µM (inactive)

Question: What about the GI50 (A498) of the same compound?
Answer: 0.0231 µM (active)

Question: And the GI50 (K562)?
Answer: 95.3 µM (inactive)

Question: And the GI50 (OVCAR-8)?
Answer: > 100 µM (inactive)

Question: What about the GI50 (CAKI-1) of the same compound?
Answer: > 21.6 µM (inactive)

Question: And the GI50 (KM12)?
Answer: > 57.3 µM (inactive)

Question: What about the GI50 (EKVX) of the same compound?
Answer: > 100 µM (inactive)

Question: What about the GI50 (Hs-578T) of the same compound?
Answer: > 100 µM (inactive)

Question: And the GI50 (M14)?
Answer: > 100 µM (inactive)

Question: And the GI50 (HOP-92)?
Answer: > 75.5 µM (inactive)

Question: And the GI50 (HCC 2998)?
Answer: > 100 µM (inactive)

Question: What about the GI50 (Malme-3M) of the same compound?
Answer: 77.1 µM (inactive)

Question: What about the GI50 (SF-295) of the same compound?
Answer: > 100 µM (inactive)

Question: What about the GI50 (MDA-MB-435) of the same compound?
Answer: > 78 µM (inactive)

Question: What about the GI50 (SK-OV-3) of the same compound?
Answer: 74.6 µM (inactive)

Question: And the GI50 (RXF 393)?
Answer: > 100 µM (inactive)

Question: And the GI50 (A549)?
Answer: > 100 µM (inactive)

Question: And the GI50 (TK-10)?
Answer: > 100 µM (inactive)

Question: And the GI50 (IGROV-1)?
Answer: > 79.6 µM (inactive)

Question: What about the GI50 (LOX IMVI) of the same compound?
Answer: 17.7 µM (inactive)

Question: What about the GI50 (SNB-19) of the same compound?
Answer: > 100 µM (inactive)

Question: And the GI50 (DU-145)?
Answer: > 100 µM (inactive)

Question: And the GI50 (PC-3)?
Answer: > 80 µM (inactive)

Question: What about the GI50 (T47D) of the same compound?
Answer: > 100 µM (inactive)
